Data: PubChem BioAssay AID1259375 (The Scripps Research Institute Molecular Screening Center, 2018)
Active and inactive are the calls of the source. How the calls were made is not given here.

biological target: Microphthalmia-associated transcription factor (Homo sapiens) (UniProt O75030); assay: MITF inhibitors by FRET titration, dose response, biochemical, high throughput (AID 1259375); conditions: FRET biochemical assay, MITF inhibition;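 further: FRET between CFP-tagged and YFP-tagged MITF protein partners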
Sequence (O75030 whole entry, looked up): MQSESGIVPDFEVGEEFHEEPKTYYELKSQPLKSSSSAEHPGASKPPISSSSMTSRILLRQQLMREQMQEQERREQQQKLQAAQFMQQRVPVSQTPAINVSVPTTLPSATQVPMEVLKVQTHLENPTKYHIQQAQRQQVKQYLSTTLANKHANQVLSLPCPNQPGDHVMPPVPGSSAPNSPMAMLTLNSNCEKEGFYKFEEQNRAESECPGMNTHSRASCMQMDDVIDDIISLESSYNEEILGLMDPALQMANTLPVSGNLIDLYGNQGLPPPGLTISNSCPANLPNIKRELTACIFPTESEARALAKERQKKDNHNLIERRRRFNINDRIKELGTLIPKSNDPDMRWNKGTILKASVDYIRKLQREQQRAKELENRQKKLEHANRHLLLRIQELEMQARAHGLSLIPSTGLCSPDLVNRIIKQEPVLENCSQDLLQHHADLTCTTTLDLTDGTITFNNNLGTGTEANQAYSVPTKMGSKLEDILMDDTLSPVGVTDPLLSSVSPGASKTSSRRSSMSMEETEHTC

Row | Structure (SMILES) | IC50
1 | COc1cc(OC)c(CN2CCCC(O)C2)cc1Br (configuration not stated) | > 6.48 µM (inactive)
2 | CC(=O)NC1=NC(=O)/C(=C\c2ccc(Br)o2)S1 | > 6.48 µM (inactive)
3 | CCOC(=O)C1C2NC(=S)N(c3cccc(Cl)c3)C1(C)Oc1c(OC)cccc12 (configuration not stated) | > 5.09 µM (inactive)
4 | Cc1cc(O)c2c(c1)Cc1cccc(O)c1C2=O | > 6.48 µM (inactive)
5 | O=c1[nH]cnc2nc(-c3ccco3)c(-c3ccco3)nc12 | > 7.63 µM (inactive)
6 | Cn1cc(-c2nc(Nc3ccc(-n4cnc(N5CCOCC5)n4)cc3)ncc2Br)cn1 | > 6.48 µM (inactive)
7 | NC(=O)/C(=C\c1cccc([N+](=O)[O-])c1)NC(=O)c1ccc(Br)cc1 | > 6.48 µM (inactive)
8 | CN(N=O)c1cc(O)ccc1O | > 6.48 µM (inactive)
9 | CN1C(=O)[C@H]2CN(C(=O)NC3CCCCC3)CCN2C(=O)[C@@H]1CO | > 6.48 µM (inactive)
10 | Brc1c(OCCN2CCNCC2)ccc2ccccc12 | > 6.48 µM (inactive)
11 | O=C(O)c1cc(S(=O)(=O)Nc2ccc3cn[nH]c3c2)ccc1O | > 7 µM (inactive)
12 | Cc1c(NC(=S)NC(=O)/C=C/c2ccco2)cccc1C(=O)O | 3.78 µM
13 | Cc1cc(OCCOCCN2CCNCC2)ccc1Cl | > 6.48 µM (inactive)
14 | CCN1CCN(CCOCCOc2ccc(F)cc2)CC1 | > 6.48 µM (inactive)
15 | CC(C)[C@H]1NC(=O)[C@H]2CN(C(=O)NCc3ccccc3)CCN2C1=O | > 6.48 µM (inactive)
16 | COc1cc(OC)c(OC)cc1CN1CCN(Cc2ccc(C)cc2)CC1 | > 5.76 µM (inactive)
17 | C[C@H]1C(=O)N2CCN(C(=O)NC3CCCCC3)C[C@@H]2C(=O)N1C | > 6.48 µM (inactive)
18 | O=C(/C=C/c1ccco1)NCCCCCCNC(=O)/C=C/c1ccco1 | > 6.48 µM (inactive)
19 | O=C1N[C@@H](Cc2ccc(O)cc2)C(=O)N2CCN(C(=O)NC3CCCCC3)C[C@H]12 | > 6.48 µM (inactive)
20 | O=C1CCCC2=C1C(c1ccc([N+](=O)[O-])o1)C1=C(CCCC1=O)O2 | > 7.09 µM (inactive)
21 | Cc1cc(C)n2nc(N)c(N)c2n1 | > 11.6 µM (inactive)
22 | CN(C)/C=C/C=C/C(=O)c1cccc(C(=O)/C=C/C=C/N(C)C)c1O | > 6.48 µM (inactive)
23 | Cn1nnc(-c2ccc(Nc3nccc(-c4ccc5nc(C6CC6)[nH]c(=O)c5c4)n3)cc2)n1 | > 6.48 µM (inactive)

Row | Structure (SMILES) | IC50
24 | O=C1c2c(O)cccc2Cc2cccc(O)c21 | > 6.48 µM (inactive)
25 | COc1ccc(C)cc1NS(=O)(=O)c1ccc2c(c1)CCC(=O)N2 | > 6.48 µM (inactive)
26 | Cc1nc(C)n(-c2ccc(Nc3cc(-n4cc(N(c5cccnc5)c5cccnc5)cn4)ccn3)cc2)n1 | > 6.48 µM (inactive)
27 | CN(C)CCN(C(=O)OCc1ccccc1)c1cc(-c2cn[nH]c2)ccc1NC(=O)OCc1ccccc1 | > 6.48 µM (inactive)
28 | CC1CCC(N2CCN(Cc3ccco3)CC2)CC1 (configuration not stated) | > 6.25 µM (inactive)
29 | O=C1N[C@@H](Cc2ccc(Cl)cc2)C(=O)N2CCN(C(=O)NCc3ccccc3)C[C@H]12 | > 6.48 µM (inactive)
30 | Cc1ccc(/C(C#N)=C\c2ccco2)cc1 | > 6.48 µM (inactive)
31 | O=C(C1CCC(Nc2nccc(-c3ccc4nc(C5CC5)[nH]c(=O)c4c3)n2)CC1)N1CCCC1 (configuration not stated) | > 6.48 µM (inactive)
32 | CC(C)NC(=O)c1cccc(NC(=O)Nc2ccc(-c3ncnc4[nH]cc(Cl)c34)cc2)c1 | > 6.48 µM (inactive)
33 | CCOC(=O)C1C2NC(=S)N(c3ccc(CC)cc3)C1(C)Oc1c(OCC)cccc12 (configuration not stated) | > 5.53 µM (inactive)
34 | O=C(NCCN1CCOCC1)c1cccc(CN(C(=O)c2nc3ccc(-c4cn[nH]c4)cc3s2)C2CC2)c1 | > 6.48 µM (inactive)
35 | O=C(c1ccncc1)N1C2C=CC(C2)C1(C(F)(F)F)C(F)(F)F (configuration not stated) | > 6.48 µM (inactive)
36 | C[C@@H](OCc1ccccc1)[C@@H]1NC(=O)[C@H]2CN(C(=O)NCc3ccccc3)CCN2C1=O | > 6.48 µM (inactive)
37 | O=C(O)c1cc(S(=O)(=O)Nc2ccncc2)ccc1O | > 7.05 µM (inactive)
38 | CN(C)CCOCCOc1ccccc1-c1ccccc1 | > 6.48 µM (inactive)
39 | COc1ccc(CN2CCN(Cc3ccccc3OC)CC2)cc1 | > 7.33 µM (inactive)
40 | O=c1[nH]cccc1-c1ccc(Nc2nccc(-c3ccc4nc(C5CC5)[nH]c(=O)c4c3)n2)cc1 | > 6.48 µM (inactive)
41 | O=C1N[C@H](Cc2ccc(O)cc2)C(=O)N2CCN(C(=O)NCc3ccccc3)C[C@H]12 | > 6.48 µM (inactive)
42 | C/C(=N\Nc1ccc(S(=O)(=O)O)cc1)c1ccc([N+](=O)[O-])o1 | > 6.48 µM (inactive)
43 | O=C(OC1CCCC1=O)c1ccc(N2CCCC2=O)cc1 (configuration not stated) | > 7.22 µM (inactive)
44 | N#CC1=C(N)n2c(s/c(=C\c3ccco3)c2=O)=C(C#N)C1c1ccco1 (configuration not stated) | > 6.53 µM (inactive)
45 | CCOC(=O)c1cc(N2C(=O)C3C4C=CC(C4)C3C2=O)ccc1Cl (configuration not stated) | > 6.48 µM (inactive)
46 | COc1cccc(CN2CCC(CNc3ccc(-c4ccncc4)cc3)C2)c1 (configuration not stated) | > 6.48 µM (inactive)

Row | Structure (SMILES) | IC50
47 | O=C(Nc1ccc(C(=O)Nc2ccc(C(=O)Nc3ccc(S(=O)(=O)O)c4cc(S(=O)(=O)O)cc(S(=O)(=O)O)c34)cc2)cc1)Nc1ccc(C(=O)Nc2ccc(C(=O)Nc3ccc(S(=O)(=O)O)c4cc(S(=O)(=O)O)cc(S(=O)(=O)O)c34)cc2)cc1 | > 6.48 µM (inactive)
48 | N#C/C(=C\c1nn(-c2ccccc2)c(N)c1C#N)c1ccco1 | > 6.48 µM (inactive)
49 | COc1ccc2c(c1)CC(C(=O)Nc1ccc(-c3cn[nH]c3)cc1OCC#N)CO2 (configuration not stated) | > 6.48 µM (inactive)
50 | CCOc1ccc(CN2CCN(Cc3cccnc3)CC2)cc1 | > 5.78 µM (inactive)
51 | O=C(Nc1ccc(N2CCOCC2)cc1)c1cccc(Nc2ccncn2)n1 | > 7.56 µM (inactive)
52 | O=C(NC1CCCCC1)N1CCN2C(=O)[C@@H]3C[C@@H](O)CN3C(=O)[C@H]2C1 | > 6.48 µM (inactive)
53 | O=C(O)c1ccccc1-c1ccc(/C=C/[N+](=O)[O-])o1 | > 6.48 µM (inactive)
54 | CCCOc1ccc(N)cc1N | > 6.22 µM (inactive)
55 | CCOC1=CC(c2ccc3c(c2)OCO3)CC(=O)c2c(C)oc(C)c21 (configuration not stated) | > 6.48 µM (inactive)
56 | N#Cc1c(-c2ccc3c(c2)OCO3)nc(N2CCCCC2)[nH]c1=O | > 6.48 µM (inactive)
57 | NCC1OC(=O)C(Oc2ccccc2)=C1Br (configuration not stated) | > 6.48 µM (inactive)
58 | COc1cc(C(=O)N2CCN(Cc3ccccc3C)CC2)cc(OC)c1OC | > 5.62 µM (inactive)
59 | CC(=O)Nc1ccc(N2C(=O)c3ccccc3C2(O)Cc2ccccc2)cc1 (configuration not stated) | > 6.48 µM (inactive)
60 | O=C(c1ccc([N+](=O)[O-])cc1)N1CCN(Cc2cccc3ccccc23)CC1 | > 5.48 µM (inactive)
61 | O=C(CCc1ccco1)Nc1ccc(-c2cn3c4c(nnc3n2)CCCC4)cc1 | > 6.48 µM (inactive)
62 | O=C(/C=C/c1ccco1)NC(=S)Nc1ccc(Cl)c(C(=O)O)c1 | > 6.48 µM (inactive)
63 | O=C(COC(=O)/C=C/c1ccco1)NCc1ccco1 | > 6.6 µM (inactive)
64 | Cc1ccc(S(=O)(=O)C(CNC(=O)c2ccco2)c2cccs2)cc1 (configuration not stated) | > 6.56 µM (inactive)
65 | O=C(NC1CCCCC1)N1CCN2C(=O)[C@H]3CCCN3C(=O)[C@H]2C1 | > 6.48 µM (inactive)
66 | c1ccc(-c2ccc(OCCCCn3cncn3)cc2)cc1 | > 6.48 µM (inactive)
67 | C/C(=N\NC(=O)Cc1cc(=O)[nH][nH]1)c1ccco1 | > 6.48 µM (inactive)
